Laboratory results as given in publication PMC11679033, “Assessing the Potential Synergistic/Antagonistic Effects of Citrinin and Cannabidiol on SH-SY5Y, HepG2, HEK293 Cell Lines, and Human Lymphocytes” (Toxins, 2024).
Marks after values point to notes of the source that are not given here.

Tests used:
[1] = MTS viability assay, HEK293; format: cell-based, human; conditions: human, HEK293 cells; HEK293, 24 h exposure, MTS; read-out: IC50 (cytotoxicity)
Protocol: (§1) Human neuroblastoma SH-SY5Y cells (ECACC 94030304), human hepatocyte carcinoma HepG2 (ECACC 85011430) and human embryonic kidney HEK293 (ECACC 85120602) used in the experiments were obtained from the European Collection of Authenticated Cell Cultures (ECACC) through Sigma-Aldrich (Steinheim, Germany). SH-SY5Y cells were grown in Dulbecco’s Modified Eagle’s Medium F12 containing 15% (v/v) fetal bovine serum (FBS), 2 mM glutamine, 1% (v/v) penicillin/streptomycin (PenStrep solution), and 1% (v/v) non-essential amino acids (NEAA solution). HEK293 and HepG2 cells were grown in EMEM medium (Sigma-Aldrich, Steinheim, Germany) supplemented with 10% (v/v) FBS, 2 mM glutamine, 1% (v/v) PenStrep and 1% (v/v) NEAA. All media and supplements were purchased from Sigma-Aldrich, Steinheim, Germany. Cells were cultured at 37 °C in a 5% CO2 atmosphere, the medium was changed every two days, and passage was carried out according to the manufacturer’s protocol.
(§2) MTS assay (CellTiter 96® AQueous One Solution Cell Proliferation Assay, Promega, Madison, WI, USA) was used to determine the viability of cells/cytotoxic properties of tested compounds by measuring cells’ mitochondrial succinate dehydrogenase activity. The procedure followed a previously described protocol. In brief, the cells were seeded in transparent 96-well plates at a density of 20,000 cells/well one day before the experiment and treated with tested compounds in concentrations: 0.01, 0.1, 0.5, 1, 2, 5, 10, 25, 50, 100 and 300 µM. Triton X-100 at a final concentration of 0.18% (v/v) (stock of 9% in water; Sigma-Aldrich, Steinheim, Germany) was used as a positive control. After 24 h, treatment with tested compounds and incubation with MTS reagent, the absorbance was read at 492 nm on an Infinite M200PRO (Tecan Group Ltd., Männedorf, Switzerland) plate reader. Data were taken from at least three independent experiments (each treatment performed in duplicate or triplicate) and expressed as percentages (mean ± standard error) of viable cells compared to control (untreated) cells. IC50 values were determined by a nonlinear fit equation predefined in Prism software 8 (GraphPad Software, San Diego, CA, USA).
(§3) The same method was used to evaluate a potential toxic synergistic effect on cells exposed to a combination of CBD and CIT at approximately LOAEL doses (lowest observed adverse effect level, 1 and 30 μM for SH-SY5Y and HepG2, and 2 and 0.05 μM for HEK293, respectively). There is no official recommendation for CBD oral use, but according to the available literature, we used a dose that corresponded to daily intake, which was 10 mg/kg/day (calculated on a person of 70 kg ~ 1 μM). These selected LOAEL concentrations were used for all other assays as well.

[2] = tested on: HEK293 cells; assay: MTS viability assay, HEK293; format: cell-based, human; conditions: HEK293, 24 h; for cell viability at LOAEL concentrations: CBD 2 μM, CIT 0.05 μM, alone or combined
Protocol: as §1, §2, §3

[3] = tested on: human peripheral blood lymphocytes; assay: Cytokinesis-Block Micronucleus Cytome (CBMN Cyt) Assay; conditions: 24 h, citrinin 30 µM, CBD 1 µM, bleomycin 1.25 µg/mL; for Distribution of BNMN Cells with 1 MN / Distribution of BNMN Cells with 2 MNi / Distribution of BNMN Cells with 3 MNi / Distribution of BNNB Cells with 1 NB / Distribution of BNNB Cells with 2 NBs / Micronuclei (MNi) and BNMN Cells: Total (BNNB)6000 / Micronuclei (MNi) and BNMN Cells: Total (MNi)6000 / Nuclear Buds (NBs) and BNNB Cells: Total (BNNB)6000 / Nuclear Buds (NBs) and BNNB Cells: Total (NBs)6000 / Nucleoplasmic Bridges (NPBs) and BNNPB Cells: Total (BNNPB)6000 / Nucleoplasmic Bridges (NPBs) and BNNPB Cells: Total (NPBs)6000: in 6000 BN cells; for Cell Death: Total (Apoptosis)6000 / Cell Death: Total (Necrosis)6000: in 6000 cells; for Micronuclei (MNi) and BNMN Cells: Mean (BNMN)1000 ± SD / Micronuclei (MNi) and BNMN Cells: Mean (MNi)1000 ± SD / Nuclear Buds (NBs) and BNNB Cells: Mean (BNNB)1000 ± SD / Nuclear Buds (NBs) and BNNB Cells: Mean (NBs)1000 ± SD / Nucleoplasmic Bridges (NPBs) and BNNPB Cells: Mean (BNNPB)1000 ± SD / Nucleoplasmic Bridges (NPBs) and BNNPB Cells: Mean (NPBs)1000 ± SD: per 1000 BN cells; for Cell Death: Mean (Apoptosis)1000 ± SD / Cell Death: Mean (Necrosis)1000 ± SD: per 1000 cells
Protocol: The experimental design included the establishment of lymphocyte cultures, and the 24 h treatments with the test compounds, performed according to the last OECD recommendations, given in the Test Guideline No. 487—In Vitro Mammalian Cell Micronucleus Test.
The selection of specific concentrations of test compounds adhered to the guidelines for in vitro genotoxicity testing using comet assay. […] Solutions used in testing were prepared just prior to treatment by dissolving the test compounds in ethanol (Kemika, Zagreb, Croatia).
Two independent trials, with six experimental groups each, were conducted. A total of six replicate cultures for every single experimental group were established. This step was carried out as follows: aliquots of heparinized blood (V = 600 μL per culture) were pipetted into a growth medium RPMI-1640 (Gibco, Grand Island, NY, USA) supplemented with 10% fetal calf serum (Gibco, Grand Island, NY, USA) and antibiotics (penicillin and streptomycin; Sigma-Aldrich, Steinheim, Germany). Lymphocytes were stimulated with a mitogen phytohemagglutinin (Remel, Lenexa, KS, USA) in order to induce cell division prior to exposure to the test chemicals. Cultures were maintained in the humidified atmosphere of 5% CO2 at 37 °C (Heraeus Hera Cell 240 incubator; Langenselbold, Germany).
Negative controls (NCs) were non-treated lymphocytes. Solvent controls (SCs) were lymphocytes treated with ethanol (its final concentration in the culture corresponded to 0.03%). Positive controls (PCs) were lymphocytes treated for 24 h with bleomycin at 1.25 µg/mL (according to [69]). The other three groups were lymphocytes exposed to single CIT, single CBD, and their combination (CIT + CBD, at the same concentrations).
Treatments with test compounds started 20 h after the initial establishment of the cell cultures and lasted for 24 h. Upon completion of the exposure, aliquots of 100 µL of the treated cultures were pipetted in sterile conditions and used to prepare microgels for the alkaline comet assay. The remaining content of flasks was further processed using Cytokinesis-Block Micronucleus Cytome (CBMN Cyt) Assay.
CBMN Cyt Assay was performed according to standard protocols proposed for micronucleus assay. Upon completion of the exposure, lymphocyte cultures were subjected to centrifugation at 100× g using a benchtop centrifuge (ROTOFIX 32A, Hettich, Tuttlingen, Germany). During this process, cells settled to the bottom of the tube. The growth medium with tested compounds was removed by pipetting, discarded and replaced with a fresh amount of complete growth medium RPMI-1640 that contained Cytochalasin B (cytoB; Sigma-Aldrich, Steinheim, Germany) at a final concentration of 6 µg/mL. This procedure was timed to the 44th hour of lymphocyte cultivation, as that time is a critical point for the addition of cytoB to inhibit cytokinesis and obtain binucleated cells. All treated and control cultures were further maintained in the previously described conditions at 37 °C until the end of the 72nd hour of cultivation, as proposed by protocols. Then, the preparation of microscopic slides started, which included harvesting of cells by centrifugation (100× g, ROTOFIX 32A centrifuge, Hettich, Tuttlingen, Germany), followed by hypotonic treatment (0.075 mol/L KCl; Kemika, Zagreb, Croatia), and a new round of centrifugation. The resulting sediments of cells were fixed in several repeating stages with methanol–acetic acid (3:1 v/v; both obtained from Kemika, Zagreb, Croatia) followed by centrifugation. The final lymphocyte suspension was dropped onto clean microscope slides.

Row | SMILES | IC50 at 24 h [1] | lowest observed adverse effect level (LOAEL), approximate [2] | cell viability at LOAEL concentrations [2] | Distribution of BNMN Cells with 1 MN [3] | Distribution of BNMN Cells with 2 MNi [3] | Distribution of BNMN Cells with 3 MNi [3] | Distribution of BNNB Cells with 1 NB [3] | Distribution of BNNB Cells with 2 NBs [3] | Micronuclei (MNi) and BNMN Cells: Total (BNNB)6000 [3] | Micronuclei (MNi) and BNMN Cells: Total (MNi)6000 [3] | Nuclear Buds (NBs) and BNNB Cells: Total (BNNB)6000 [3] | Nuclear Buds (NBs) and BNNB Cells: Total (NBs)6000 [3] | Nucleoplasmic Bridges (NPBs) and BNNPB Cells: Total (BNNPB)6000 [3] | Nucleoplasmic Bridges (NPBs) and BNNPB Cells: Total (NPBs)6000 [3] | Cell Death: Total (Apoptosis)6000 [3] | Cell Death: Total (Necrosis)6000 [3] | Micronuclei (MNi) and BNMN Cells: Mean (BNMN)1000 ± SD [3] | Micronuclei (MNi) and BNMN Cells: Mean (MNi)1000 ± SD [3] | Nuclear Buds (NBs) and BNNB Cells: Mean (BNNB)1000 ± SD [3] | Nuclear Buds (NBs) and BNNB Cells: Mean (NBs)1000 ± SD [3] | also measured
1 | CC1=C2C(=CO[C@H](C)[C@H]2C)C(O)=C(C(=O)O)C1=O [CIT, citrinin] | 440 ± 20 nM | ~0.05 µM | did not independently impact cell viability | 66 ^a,b,d,e | 5 | 0 | 69 ^a,b,d,e | 5 | 71^a,b,d,e | 74 ^a,b,d,e | 74 ^a,b,d,e | 79 ^a,b,d,e | 4 | 4 | 50 ^a,b,d,e | 45 ^a,b,d,e | 11.7 ± 1.4 ^a,b,d,e | 12.3 ± 1.6 ^a,b,d,e | 12.3 ± 3.1 ^a,b,d,e | 13.2 ± 3.7 ^a,b,d,e | IC50 fold lower than that of CBD [2]: 11 fold; Nucleoplasmic Bridges (NPBs) and BNNPB Cells: Mean (BNNPB)1000 ± SD [3]: 0.7 ± 0.5; Nucleoplasmic Bridges (NPBs) and BNNPB Cells: Mean (NPBs)1000 ± SD [3]: 0.7 ± 0.5; Cell Death: Mean (Apoptosis)1000 ± SD [3]: 8.3 ± 1.6 ^a,b,d,e; Cell Death: Mean (Necrosis)1000 ± SD [3]: 7.5 ± 0.8 ^a,b,d,e
2 | C=C(C)[C@@H]1CCC(C)=C[C@H]1c1c(O)cc(CCCCC)cc1O [CBD, cannabidiol] | 5000 ± 1000 nM | ~2 µM | did not independently impact cell viability | 17 | 0 | 0 | 25 ^a | 0 | 17 | 17 | 25 ^a | 25 ^a | 0 | 0 | 19 ^a | 9 | 2.8 ± 0.8 | 2.8 ± 0.8 | 4.2 ± 0.4 ^a | 4.2 ± 0.4 ^a | Nucleoplasmic Bridges (NPBs) and BNNPB Cells: Mean (BNNPB)1000 ± SD [3]: 0; Nucleoplasmic Bridges (NPBs) and BNNPB Cells: Mean (NPBs)1000 ± SD [3]: 0; Cell Death: Mean (Apoptosis)1000 ± SD [3]: 3.2 ± 0.8 ^a,b; Cell Death: Mean (Necrosis)1000 ± SD [3]: 1.5 ± 1.0
